Measured values as given in US20110230367A1, “Amphiphilic Peptides Promoting Production of Target miRNA and Method of Regulating Production of Target miRNA” (SNU R&DB FOUNDATION, priority 2009, published 2011).
Read-outs that look alike come from different tables or passages of the source.

What was measured:
HBV (hairpin RNA) = experiment: Dissociation constant by competitive fluorescence anisotropy with rhodamine-rev peptide probe; assay type: binding; conditions: Table 6
Protocol: (§1) The binding affinity between the peptide synthesized in <Example 1> and pre-miRNA from <Example 2> were measured by fluorescence anisotropy using competitive binding method. A rev peptide with rhodamine attached at the N-terminal was used as a fluorescent probe and LS-55 luminescence spectrometer from Perkin-Elmer was use for analysis. A constant temperature of 20° C. was maintained by a water bath. The fluorescent intensity was measured by of 200 nM of rhodamine-rev peptide was measured with an excitation wavelength at 550 nm (band path 10 nm) and detection at 580 nm (band path 10 nm). The integration time […]. Each experimental value is the mean value of 5 measurements. A 20 mM of HEPES{4-(2-hydroxyethyl)-1-piperazineethanesulfonic acid} buffer (pH 7.5) containing 140 mM NaCl, 5 mM KCl and 1 mM MgCl2 was used for measuring the dissociation constant. The dissociation constant was determined according to the Mathematical Formula 1 and using Kaledia graph.
(§2) A and Ao are the fluorescence anistropy in the presence or absence of RNA, whereas ΔA is the difference between these two values. [RNA]0 and [Rh-rev]0 are initial concentrations of RNA and rev peptide binding with rhodamine.
(§3) According the method described in <Example 3>, the dissociation constant between second generation peptide and 2 pre-miRNAs synthesized from <Example 2> was determined using fluorescent polarization detection method and fluorescent probe molecule.

pre-miR24-1 = experiment: as above; assay type: binding; conditions: for Kd / Discrimination ratio pre-miR24-1 (in parenthesis): Table 6; for Discrimination ratio pre-miR24-1 (in parenthesis): Kd against other RNA/Kd against target miRNA
Protocol: as §1, §2, §3

pre-miR16-1 = experiment: as above; assay type: binding; conditions: for Discrimination ratio pre-miR16-1 (in parenthesis): Kd against other RNA/Kd against target miRNA
Protocol: as §1, §2, §3

IRES (hairpin RNA) = experiment: as above; assay type: binding; conditions: Table 6
Protocol: as §1, §2, §3

pre-let7a-1 = experiment: as above; assay type: binding; conditions: for Discrimination ratio pre-let7a-1 (in parenthesis): Kd against other RNA (HBV, IRES, other miRNAs)/Kd against target miRNA
Protocol: as §1, §2, §3

[1] = tested on: recombinant human Dicer processing pre-let7a-1; experiment: Dicer activity assay in the presence of peptide, substrate pre-let7a-1; assay type: biochemical; conditions: 400 nM peptide, pre-let7a-1 substrate, FIG. 2
Protocol: Two types of pre-miRNA (pre-let7a-1, pre-miR16-1) used as the substrate for the Dicer enzyme activity assay was ordered and manufactured by ST Pharm Co., Ltd (FIG. 1). For Dicer activity assay, the 5′ end of the synthesized pre-miRNA was labeled with ^32p isotope. Two pmole of each pre-miRNA was isotope labeled with […] of [g-^32P]ATP (New England Biolabs) using 10 units of T4 polynucleotide kinase (New England Biolabs). Total volume of 10 μl was isotope labeled for 1 hr at 37° C. The isotope labeled RNA obtained after the reaction was purified using G-25 Sephadex column (Sigma). The purified substrate was used for measuring Dicer enzyme activity. Total reaction mixture of 30 μl containing 1 nM of isotope labeled pre-miRNA and 0.001 u/μl of recombinant human Dicer (Genlantis, CA, USA) were incubated at 37° C. in 24 mM 4-(2-hydroxyethyl)-1-piperazineethanesulfonic acid, HEPES) buffer system containing 200 mM NaCl, 0.04 mM EDTA, 1 mM ATP and 2.5 mM MgCl2(pH 8.0). After reacting for 0, 10, 30, […], 3 μl of each reaction mixture was mixed with 5 μl of RNA gel loading buffer {95% formamide, 10 mM ethylenediaminetetraacetic acid (EDTA), 0.05% FF (xylene cyanol FF)} and incubated for 5 min at 65° C. The amount of the reaction product was determined by gel running in 15% polyacrylamide gel containing 7M urea, and then the initial reaction velocity (V0) from each reaction was compared. The initial reaction velocity (V0) of the enzyme is the reaction velocity of the initial linear time (until 30 min). Each initial velocity was normalized with the initial velocity from each substrate condition without peptide treatment. The initial reaction velocity of Dicer for pre-let7a-1 and pre-miR16-1 without peptide treatment were […] and 0.018 fmole/min, respectively. Each of the initial reaction velocity is a mean data of more than 3 measurements, and the standard deviation is shown as error bars.

[2] = tested on: recombinant human Dicer processing pre-miR16-1; experiment: Dicer activity assay in the presence of peptide, substrate pre-miR16-1; assay type: biochemical; conditions: 400 nM peptide, pre-miR16-1 substrate, FIG. 2
Protocol: Two types of pre-miRNA (pre-let7a-1, pre-miR16-1) used as the substrate for the Dicer enzyme activity assay was ordered and manufactured by ST Pharm Co., Ltd (FIG. 1). For Dicer activity assay, the 5′ end of the synthesized pre-miRNA was labeled with ^32p isotope. Two pmole of each pre-miRNA was isotope labeled with […] of [g-^32P]ATP (New England Biolabs) using 10 units of T4 polynucleotide kinase (New England Biolabs). Total volume of 10 μl was isotope labeled for 1 hr at 37° C. The isotope labeled RNA obtained after the reaction was purified using G-25 Sephadex column (Sigma). The purified substrate was used for measuring Dicer enzyme activity. Total reaction mixture of 30 μl containing 1 nM of isotope labeled pre-miRNA and 0.001 u/μl of recombinant human Dicer (Genlantis, CA, USA) were incubated at 37° C. in 24 mM 4-(2-hydroxyethyl)-1-piperazineethanesulfonic acid, HEPES) buffer system containing 200 mM NaCl, 0.04 mM EDTA, 1 mM ATP and 2.5 mM MgCl2(pH 8.0). After reacting for 0, 10, 30, 60 or 120 min in the presence of 400 nM concentration of 2b or 2c peptide, 3 μl of each reaction mixture was mixed with 5 μl of RNA gel loading buffer {95% formamide, 10 mM ethylenediaminetetraacetic acid (EDTA), 0.05% FF (xylene cyanol FF)} and incubated for 5 min at 65° C. The amount of the reaction product was determined by gel running in 15% polyacrylamide gel containing 7M urea, and then the initial reaction velocity (V0) from each reaction was compared. The initial reaction velocity (V0) of the enzyme is the reaction velocity of the initial linear time (until 30 min). Each initial velocity was normalized with the initial velocity from each substrate condition without peptide treatment. The initial reaction velocity of Dicer for pre-let7a-1 and pre-miR16-1 without peptide treatment were […] and 0.018 fmole/min, respectively. Each of the initial reaction velocity is a mean data of more than 3 measurements, and the standard deviation is shown as error bars.

[3] = Table 5, second generation peptides, read-out: Kd value against pre-miR16-1
[4] = Table 6, read-out: Kd pre-miR16-1
[5] = Table 5, second generation peptides, read-out: Kd value against pre-let7a-1
[6] = Table 6, read-out: Kd pre-let7a-1
[7] = Table 3, first generation peptides, 20° C., HEPES pH 7.5, read-out: Kd value with pre-miR16-1
[8] = Table 3, first generation peptides, 20° C., HEPES pH 7.5, read-out: Kd value with pre-let7a-1

Sequence | Kd (HBV (hairpin RNA)) | Kd (pre-miR24-1) | Discrimination ratio pre-miR24-1 (in parenthesis) (pre-miR24-1) | Kd (pre-miR16-1; [3]) | Discrimination ratio pre-miR16-1 (in parenthesis) (pre-miR16-1; Table 6) | Kd (pre-miR16-1; [4]) | Kd (IRES (hairpin RNA)) | Kd (pre-let7a-1; [5]) | Discrimination ratio pre-let7a-1 (in parenthesis) (pre-let7a-1; Table 6) | Kd (pre-let7a-1; [6]) | Kd (pre-miR16-1; [7]) | Kd (pre-let7a-1; [8]) | further results
WKKLLKLLKKLWKLAG [Peptide 2d, Ac-WKKLLKLLKKLWKLAG, 15] | 0.79 nM | 0.67 nM | 1.0 | 0.64 nM | 1.2 | 0.64 nM | 0.77 nM | 0.25 nM | 1.2 | 0.22 nM |  |  | 
LKKLLKLLKKWLKWAG [Peptide 2i, Ac-LKKLLKLLKKWLKWAG, 20] | 0.82 nM | 0.53 nM | 1.2 | 0.47 nM | 1.6 | 0.47 nM | 1.2 nM | 0.31 nM | 4.4 | 0.31 nM |  |  | 
LKKLWKLLKKLLKLAG [Peptide 1c, Ac-LKKLWKLLKKLLKLAG] |  |  |  |  |  |  |  |  |  |  | 0.56 nM | 0.41 nM | 
LKKLLKLLKKWWKLAG [Peptide 2h, Ac-LKKLLKLLKKWWKLAG, 19] | 5.7 nM | 1.5 nM | 1.9 | 2.6 nM | 1.0 | 2.6 nM | 1.7 nM | 1.5 nM | 1.8 | 1.5 nM |  |  | 
LKKLLKWLKKLLKWAG [Peptide 2g, Ac-LKKLLKWLKKLLKWAG, 18] | 1 nM | 0.47 nM | 2.3 | 1.1 nM | 0.99 | 1.1 nM | 1.3 nM | 0.96 nM | 0.85 | 0.96 nM |  |  | discrimination ratio for pre-miR24-1 (pre-miR24-1): 2.3
WKKLLKLLKKLLKLAG [Peptide 1a, Ac-WKKLLKLLKKLLKLAG] |  |  |  |  |  |  |  |  |  |  | 0.42 nM | 0.17 nM | binding with pre-miR16-1 (pre-miR16-1): significant increase in binding affinity; binding with pre-let7a-1 (pre-let7a-1): significant increase in binding affinity
LKKLLKWLKKLLKLAG [Peptide 1d, Ac-LKKLLKWLKKLLKLAG] |  |  |  |  |  |  |  |  |  |  | 1.8 nM | 0.64 nM | 
LKKLLKLLKKLWKLAG [Peptide 1g, Ac-LKKLLKLLKKLWKLAG] |  |  |  |  |  |  |  |  |  |  | 0.56 nM | 0.25 nM | 
LKKLLKLLKKLLKWAG [Peptide 1h, Ac-LKKLLKLLKKLLKWAG] |  |  |  |  |  |  |  |  |  |  | 0.4 nM | 0.11 nM | binding with pre-miR16-1 (pre-miR16-1): significant increase in binding affinity; binding with pre-let7a-1 (pre-let7a-1): significant increase in binding affinity; increase in binding affinity compared to the peptide with no tryptophan substitution (peptide 1) (pre-let7a-1; pre-miRNA not named, values fit pre-let7a-1): 150 times
LKKLLKLLKKWLKLAG [Peptide 1f, Ac-LKKLLKLLKKWLKLAG] |  |  |  |  |  |  |  |  |  |  | 0.48 nM | 0.32 nM | 
LKKLLKLWKKLLKLAG [Peptide 1e, Ac-LKKLLKLWKKLLKLAG] |  |  |  |  |  |  |  |  |  |  | 27 nM | 20 nM | initial reaction velocity (V0) of Dicer, normalized to no peptide [1]: did not increase; initial reaction velocity (V0) of Dicer, normalized to no peptide [2]: did not increase
LKKLLKLLKKLLKLAG [Peptide 1, Ac-LKKLLKLLKKLLKLAG] |  |  |  | 12 nM |  |  |  | 17 nM |  |  | 12 nM | 17 nM | 
LKKWLKLLKKLLKLAG [Peptide 1b, Ac-LKKWLKLLKKLLKLAG] |  |  |  |  |  |  |  |  |  |  | 1.2 nM | 0.68 nM | 
LKKLLKLLKKLWKWAG [Peptide 2j, Ac-LKKLLKLLKKLWKWAG, 21] | 0.35 nM | 0.27 nM | 1.9 | 0.44 nM | 1.4 | 0.44 nM | 0.85 nM | 0.37 nM | 1.0 | 0.37 nM |  |  | 
WKKLWKLLKKLLKLAG [Peptide 2a, Ac-WKKLWKLLKKLLKLAG, 12] | 0.77 nM | 0.82 nM | 0.66 | 0.32 nM | 2.6 | 0.32 nM | 0.9 nM | 0.23 nM | 2.8 | 0.23 nM |  |  | 
LKKLWKLLKKLLKWAG [Peptide 2f, Ac-LKKLWKLLKKLLKWAG, 17] | 0.38 nM | 2.2 nM | 0.66 | 2.1 nM | 1.2 | 2.1 nM | 3.8 nM | 0.9 nM | 9.3 | 0.96 nM |  |  | 
WKKLLKLLKKLLKWAG [Peptide 2e, Ac-WKKLLKLLKKLLKWAG, 16] | 0.34 nM | 0.84 nM | 0.50 | 0.28 nM | 2.3 | 0.28 nM | 0.76 nM | 0.22 nM | 1.7 | 0.9 nM |  |  | discrimination ratio for pre-miR16-1 (pre-miR16-1; against other RNAs): 2.3
